Converted amounts (≈) assume the structure as drawn.
Columns and labels:
Type in all cases: functional
[1] = tested on: Salmonella enterica; experiment: Antibacterial activity against Salmonella choleraesuis infected in mouse assessed as protection from infection at 25 mg/kg, sc administered 0.5 hrs, 4 and 24 hrs post inoculation; conditions: route subcutaneous
[2] = tested on: Salmonella enterica; experiment: Antibacterial activity against Salmonella choleraesuis infected in mouse assessed as protection from infection at 25 mg/kg, po administered 0.5 hrs, 4 and 24 hrs post inoculation
[3] = tested on: Streptococcus pyogenes; experiment: Antibacterial activity against Streptococcus pyogenes
[4] = tested on: Escherichia coli; experiment: Antibacterial activity against Escherichia coli
[5] = tested on: Salmonella enterica; experiment: Antibacterial activity against Salmonella choleraesuis infected in sc dosed mouse assessed as protection from infection compound administered 0.5 hrs, 4 and 24 hrs post inoculation; conditions: read-out: PD50
[6] = tested on: Escherichia coli; experiment: Antibacterial activity against Escherichia coli infected in sc dosed mouse assessed as protection from infection compound administered 0.5 hrs, 4 and 24 hrs post inoculation; conditions: read-out: PD50
[7] = tested on: Pasteurella multocida; experiment: Antibacterial activity against Pasteurella multocida infected in sc dosed mouse assessed as protection from infection compound administered 0.5 hrs, 4 and 24 hrs post inoculation; conditions: read-out: PD50
[8] = tested on: Brachyspira hyodysenteriae; experiment: Antibacterial activity against Treponema hyodysenteriae after 72 hrs by dilution method
[9] = tested on: Escherichia coli; experiment: Antibacterial activity against Escherichia coli infected in po dosed mouse assessed as protection from infection compound administered 0.5 hrs, 4 and 24 hrs post inoculation; conditions: read-out: PD50
[10] = tested on: Pasteurella multocida; experiment: Antibacterial activity against Pasteurella multocida infected in po dosed mouse assessed as protection from infection compound administered 0.5 hrs, 4 and 24 hrs post inoculation; conditions: read-out: PD50
[11] = tested on: Salmonella enterica; experiment: Antibacterial activity against Salmonella choleraesuis infected in po dosed mouse assessed as protection from infection compound administered 0.5 hrs, 4 and 24 hrs post inoculation; conditions: read-out: PD50
[12] = tested on: Salmonella enterica; experiment: Antibacterial activity against Salmonella choleraesuis
[13] = tested on: Pasteurella multocida; experiment: Antibacterial activity against Pasteurella multocida

| Structure (SMILES) | Activity [1] [%] | Activity [2] [%] | MIC [3] [µg/mL] | MIC [4] [µg/mL] | ED50 [5] [mg/kg] | ED50 [6] [mg/kg] | ED50 [7] [mg/kg] | MIC [8] [µg/mL] | ED50 [9] [mg/kg] | ED50 [10] [mg/kg] | ED50 [11] [mg/kg] | MIC [12] [µg/mL] | MIC [13] [µg/mL] |
| --- | --- | --- | --- | --- | --- | --- | --- | --- | --- | --- | --- | --- | --- |
| CCOC1(C)OCc2c1[n+]([O-])c1ccccc1[n+]2[O-] (configuration not stated) | 50 | 70 | – | – | – | – | – | – | – | – | – | – | – |
| COC1(C)OCc2c1[n+]([O-])c1ccccc1[n+]2[O-] (configuration not stated) | 70 | 70 | – | – | – | – | – | – | – | – | – | – | – |
| COC(=O)N/N=C/c1c[n+]([O-])c2ccccc2[n+]1[O-] [CARBADOX] | 40 | 80 | 0.19 (≈ 0.725 µM) | 0.39 (≈ 1.49 µM) | 44 | 7 | 18 | 0.09 (≈ 0.343 µM) | 8.2 | 16 | 20 | 0.19 (≈ 0.725 µM) | 0.78 (≈ 2.97 µM) |
| CC1(OCc2ccccc2)OCc2c1[n+]([O-])c1ccccc1[n+]2[O-] (configuration not stated) | 60 | 40 | – | – | – | – | – | – | – | – | – | – | – |
| CC1(O)OCc2c1[n+]([O-])c1ccccc1[n+]2[O-] (configuration not stated) | 100 | 100 | – | – | 4.4 | 13 | 8.1 | – | 14 | 11 | 6 | – | – |

Source: ChEMBL document CHEMBL3244049, “Synthesis and antibacterial activity of 1-hydroxy-1-methyl-1,3-dihydrofuro[3,4-b]quinoxaline 4,9-dioxide and related compounds” (1979)
